Patent US9420813B2, “Sweetener” (AJINOMOTO CO., INC., priority 2007, dated 2016)
*1 amine or outer side, *2 acyl side, *3 side chain or, on linkers, in order; H or OH if unused. Where no end group is shown, it is not given here. [ ]: non-standard residue; d: D form. γGlu = O=C(O)[C@H](CCC(=O)[*:2])N[*:1]; Abu = CC[C@H](N)C(=O)O

Test: Quantitative sensory evaluation, improvement of body taste and bitterness of combined high-intensity sweeteners (Examples 2 and 4)
Set-up: species or system human
Conditions: for Bitterness: control 0, <0 improved; for Bitterness / Body taste: n=12; for Body taste: control 0, >0 improved; for improvement of the body taste (conclusion in words): combined sweetener solutions, Tables 9 to 12 and 16 to 19
Procedure: The quantitative sensory evaluation test was performed as follows. As for a combination standard solution of each sweeteners, the following compounds were used. The following standard solutions have been adjusted so they each have almost the same degree of sweetness.
ii) APM (0.02 g/dl)+Ace-K (0.005 g/dl) [APM:Ace-K=8:2 as a ratio of degrees of sweetness]
iii) Sucralose (0.0058 g/dl)+Ace-K (0.0075 g/dl) [sucralose:Ace-K=7:3 as a ratio of degrees of sweetness]
iv) APM (0.0125 g/dl)+sucralose (0.0042 g/dl) [APM:sucralose=1:1 as a ratio of degrees of sweetness]
v) APM (0.0125 g/dl)+sucralose (0.0021 g/dl)+Ace-K (0.0063 g/dl) [APM:sucralose:Ace-K=2:1:1 as a ratio of degrees of sweetness]
To distilled water containing each of the sweeteners, γ-Glu-Cys-Gly (glutathione), γ-Glu-Val-Gly or γ-Glu-Abu-Gly was added and mixed at concentrations of 0.0001 to 1 g/dl, and then the degree of the improvement of the body taste and the improvement of the bitterness on the sweet taste was measured. The addition effect of the peptides on each of the high-intensity sweeteners was evaluated with reference to sucrose.
When a mixture is more acidic than the standard control solution, the pH of the mixture was adjusted with NaOH to achieve a range of pH±0.2 with respect to the pH of the standard solution before use.
The sensory evaluation for the improvement of the body taste was performed with n=12 on the basis of the following criteria: a control (obtained by adding distilled water only and without adding glutathione and/or the peptide) was defined as 0, and by using the control as a standard, the follow were defined: weak: −2 points; slightly weak: −1 point; slightly strong: 1 point, and strong: 2 points. A higher score than 0 means that the sample has a body taste-improving effect.
(§1) Alternatively, the sensory evaluation for the improvement of the bitterness was performed with n=12 on the basis of the following criteria: a control (obtained by adding distilled water only and without adding glutathione and/or the peptide) was defined as 0, and by using the control as a standard, the following were defined: weak: −2 points; slightly weak: −1 point; slightly strong: 1 point, and strong: 2 points. A lower score than 0 means that the sample improves the bitterness.
The quantitative sensory evaluation test was performed as follows. As for combination standard solution of each sweeteners, the following compound was used. The following standard solutions have been adjusted so they each have almost the same degree of sweetness.
To distilled water containing each sweetener mentioned above, γ-Glu-Val-Gly or cinacalcet was added and mixed at concentrations of 0.0001 to 1 g/dl, and then each degree of the improvement of the body taste and the improvement of the bitterness on the sweet taste was measured. The addition effect of the sample on each of the high intensity sweeteners was evaluated with reference to sucrose.
When a mixture is more acidic than the standard control solution, the pH of the sample was adjusted with NaOH to achieve a range of pH±0.2 with respect to the pH of the standard solution before use.
The sensory evaluation for the improvement of the body taste was performed with n=12 on the basis of the following criteria: a control (obtained with adding distilled water only and without adding the sample) was defined as 0, and by using the control as a standard, the following were defined: weak: −2 points; slightly weak: −1 point; slightly strong: 1 point, and strong: 2 points. A higher score than 0 means that the sample improves the body taste.
as §1, with “(obtained with” for “(obtained by”, “adding” for “adding glutathione and/or”, “the sample)” for “the peptide)”, “points. […]” for “points. A lower score than 0 means that the sample improves the bitterness.”

[1] = APM 0.0125 + sucralose 0.0021 + Ace-K 0.0063 g/dl (2:1:1), sample 0.0001 g/dl
[2] = APM 0.0125 + sucralose 0.0021 + Ace-K 0.0063 g/dl (2:1:1), sample 0.001 g/dl
[3] = APM 0.0125 g/dl + sucralose 0.0042 g/dl (1:1), sample 0.0001 g/dl
[4] = APM 0.0125 g/dl + sucralose 0.0042 g/dl (1:1), sample 0.001 g/dl
[5] = APM 0.02 g/dl + Ace-K 0.005 g/dl (8:2), sample 0.0001 g/dl
[6] = APM 0.02 g/dl + Ace-K 0.005 g/dl (8:2), sample 0.001 g/dl
[7] = APM:Ace-K = 8:2, sample 0.0001 g/dl
[8] = sucralose 0.0058 g/dl + Ace-K 0.0075 g/dl (7:3), sample 0.0001 g/dl
[9] = sucralose 0.0058 g/dl + Ace-K 0.0075 g/dl (7:3), sample 0.001 g/dl
[10] = APM 0.0125 + sucralose 0.0021 + Ace-K 0.0063 g/dl (2:1:1), sample 0.05 g/dl
[11] = APM 0.0125 g/dl + sucralose 0.0042 g/dl (1:1), sample 0.05 g/dl
[12] = APM 0.02 g/dl + Ace-K 0.005 g/dl (8:2), sample 0.05 g/dl
[13] = sucralose 0.0058 g/dl + Ace-K 0.0075 g/dl (7:3), sample 0.05 g/dl
[14] = APM 0.0125 + sucralose 0.0021 + Ace-K 0.0063 g/dl (2:1:1), sample 0.01 g/dl
[15] = APM 0.0125 g/dl + sucralose 0.0042 g/dl (1:1), sample 0.01 g/dl
[16] = APM 0.02 g/dl + Ace-K 0.005 g/dl (8:2), sample 0.01 g/dl
[17] = sucralose 0.0058 g/dl + Ace-K 0.0075 g/dl (7:3), sample 0.01 g/dl

Row | Molecule | Bitterness [1] [points] | Body taste [1] [points] | Bitterness [2] [points] | Body taste [2] [points] | Bitterness [3] [points] | Body taste [3] [points] | Bitterness [4] [points] | Body taste [4] [points] | Bitterness [5] [points] | Body taste [5] [points] | Bitterness [6] [points] | Body taste [6] [points] | Taste profile [7] | improvement of the body taste (conclusion in words) | Bitterness [8] [points] | Body taste [8] [points] | Bitterness [9] [points] | Body taste [9] [points] | other results
1 | C[C@@H](NCCCc1cccc(C(F)(F)F)c1)c1cccc2ccccc12 [Cinacalcet, (R)—N-(3-(3-(trifluoromethyl)phenyl)propyl)-1-(1-naphthyl)ethylamine, reference compound] | −0.2 | 0.5 | −0.4 | 1.1 | −0.2 | 0.5 | −0.2 | 1.1 | −0.1 | 0.5 | −0.3 | 1.1 | Sweet taste with growth is enhanced in middle | improves the body taste at almost the same concentration | −0.1 | 0.8 | −0.3 | 1.5 | Taste profile (APM:Ace-K = 8:2, sample 0.001 g/dl): Sweet taste with growth is enhanced in middle; Taste profile (APM:sucralose:Ace-K = 2:1:1, sample 0.0001 g/dl): Harmony and richness are present in middle; Taste profile (APM:sucralose:Ace-K = 2:1:1, sample 0.001 g/dl): Harmony and richness are present in middle
2 | N[C@@H](CCC(=O)N[C@@H](CS)C(=O)NCC(=O)O)C(=O)O [γ-Glu-Cys-Gly, reference compound] |  |  |  |  |  |  |  |  |  |  |  |  |  |  |  |  |  |  | Bitterness [10]: −0.3 points; Body taste [10]: 1.2 points; Bitterness [11]: −0.3 points; Body taste [11]: 1.0 points; Bitterness [12]: −0.3 points; Body taste [12]: 1.0 points; Taste profile (APM:Ace-K = 8:2, sample 0.05 g/dl): Sweet taste is wholly enhanced.; Taste profile (APM:sucralose = 1:1, sample 0.05 g/dl): Sweet taste is enhanced in middle taste.; Taste profile (APM:sucralose:Ace-K = 2:1:1, sample 0.05 g/dl): Sweet taste is wholly enhanced.; Bitterness [13]: −0.3 points; Body taste [13]: 1.0 points; Taste profile (sucralose:Ace-K = 7:3, sample 0.05 g/dl): Sweet taste is enhanced in middle taste.
3 | [γGlu]-Val-Gly | −0.3 | 0.6 | −0.7 | 1.3 | −0.2 | 0.6 | −0.4 | 1.3 | −0.3 | 0.6 | −0.7 | 1.3 | Sweet taste with growth is enhanced in middle | improves the body taste at almost the same concentration | −0.3 | 0.7 | −0.7 | 1.3 | 
4 | [γGlu]-[Abu]-Gly |  |  | −0.4 | 0.6 |  |  | −0.1 | 0.6 |  |  | −0.3 | 0.6 |  |  |  |  | −0.3 | 0.5 | Bitterness [14]: −0.8 points; Body taste [14]: 1.3 points; Bitterness [15]: −0.1 points; Body taste [15]: 1.3 points; Bitterness [16]: −0.7 points; Body taste [16]: 1.3 points; Taste profile (APM:sucralose = 1:1, sample 0.001 g/dl): Harmony is present. Sweet taste is enhanced; Taste profile (APM:sucralose = 1:1, sample 0.01 g/dl): Harmony is present. Sweet taste is enhanced; Bitterness [17]: −0.7 points; Body taste [17]: 1.1 points
